Earlier results on five compounds are cited in patent US11077316B2, “Insertion devices and systems for production of emitted light internal to a medium and methods for their use” (Immunolight, LLC, priority 2016, dated 2021).

Read-outs that look alike come from different tables or passages of the source.

In series [1] the test system is Acinetobacter baumannii. As to conditions: released nitric oxide, light 100 milliWatts per square centimeter.
The subject of series [2] is Zaire Ebola virus (ZEBOV). Particulars: UV light 310 to 360 nm, ex situ in extracted blood.
The subject of series [3] is Venezuelan equine encephalitis virus (VEEV). Particulars: INA exposed to full light conditions.
The conditions of series [4]: orange juice, high UV exposure of 100 mJ/cm^2.

Turning to `CC(=O)[O-].CC(=O)[O-].CCc1c(CC)c2cc3nc(cnc4cc(OCCOCCOCCOC)c(OCCOCCOCCOC)cc4ncc4nc(cc1[n-]2)C(CCCO)=C4C)C(C)=C3CCCO.O.[Lu+3]` [Motexafin lutetium], the “duration of skin photosensitivity” value (in vivo) was 24 to 48 h. In the case of [Mn(PaPy3)(NO)](ClO4), the “clearing of bacteria from treated areas of plates” value in series [1] was “effectively cleared the bacteria”.

With `Oc1cccc(-c2c3nc(c(-c4cccc(O)c4)c4ccc([nH]4)c(-c4cccc(O)c4)c4nc(c(-c5cccc(O)c5)c5ccc2[nH]5)CC4)C=C3)c1` [Foscan, Tetra (m-hydroxyphenyl) chlorin], under “clinical”, the “duration of skin photosensitivity” value is “approximately 2 weeks”. `[N-]=[N+]=Nc1cccc2c(I)cccc12` [INA, 1,5-iodonaphthyl-azide]: the “infectivity of ZEBOV after INA treatment” value in series [2] was “completely noninfectious”. In series [3], the “inactivation of virulent strain of VEEV” value is “efficiently inactivate”. Take `O=C1O[C@H]([C@@H](O)CO)C(O)=C1O` [Vitamin C]: the “degradation of Vitamin C” value in series [4] is 17%.
